{"source": "patent US20050123479A1", "about": "“Therapeutic properties of oils” (priority 2002, published 2005)", "tested_on": "human T lymphocytes", "test": "PHA-induced lymphocyte proliferation (3H-TdR incorporation)", "assay_type": "cell-based", "conditions": "compared with 18:1ω9, 18:0 and 18:2; preliminary studies (FIG. 24)", "procedure": "Lymphocyte proliferation was measured by a semi-automated microtechnique (12). Human mononuclear cells (2×10^5) were seeded into u-bottomed wells of a micro-titre plate (50 μl) and treated with 500 of the ethanol emu oil fraction. After 30 min incubation, […] PHA was added to stimulate the T lymphocytes. The cells were incubated for 72 h at 37° C. in an atmosphere of 5% CO2-air and high humidity. At 6 h prior to harvest, the cultures were pulsed with 1 μCi of ^3H-TdR. The cells were harvested and the amount of radioactivity incorporated measured in a liquid scintillation counter.\nMakin emu oil was subjected to solubility in ethanol. This ethanol soluble oil fraction was then tested for ability to depress proliferation of mitogen stimulated human lymphocytes. The mononuclear cells were isolated from peripheral blood and pretreated for 30 min with dilutions of the fraction and then challenged with phytohaemagglutinin (PHA). Proliferation of lymphocytes was measured after 48 hours using ^3H-TdR incorporation as a marker for DNA synthesis.", "data": [{"smiles": "CCCCC/C=C\\C/C=C\\CCCCCCCC(=O)O", "note": "[18:2ω6, Linoleic acid (18:2ω6)]", "values": [{"measurement": "inhibition of T lymphocyte and mononuclear cell responses by fatty acids", "value": "strongly inhibitory"}]}]}
